Measurements from ChEMBL document CHEMBL4311976, “Design, synthesis and biological evaluation of novel 7H-pyrrolo[2,3-d]pyrimidine derivatives as potential FAK inhibitors and anticancer agents” (Eur J Med Chem, 2019).

Tests used:
A549 [1] = experiment: Induction of apoptosis in human A549 cells assessed as late apoptotic cells at 3 uM after 72 hrs by Annexin V-FITC/propidium iodide staining-based flow cytometric analysis (reference value: 1.24%); type: functional
A549 [2] = experiment: Antimetastatic activity against human A549 cells assessed as reduction in number of cell migration after 72 hrs by crystal violet staining based transwell assay; type: functional
MDA-MB-231 = experiment: cells; details: Homo sapiens, MDA-MB-231, 72 h
Description: Antiproliferative activity against human MDA-MB-231 cells assessed as reduction in cell viability after 72 hrs by MTT assay

[3] = biological target: Tyrosine-protein kinase SYK (Homo sapiens) (UniProt P43405); experiment: Inhibition of recombinant full length GST-tagged human SYK expressed in baculovirus expression system at 0.5 uM using tyr 02 as substrate in presence of ATP at Km concentration after 1 hr by Z'-LYTE assay relative to control
[4] = biological target: Tyrosine-protein kinase ZAP-70 (Homo sapiens) (UniProt P43403); experiment: Inhibition of recombinant full length His-tagged human ZAP70 expressed in baculovirus expression system at 0.5 uM using tyr 07 as substrate in presence of ATP at Km concentration after 1 hr by Z'-LYTE assay relative to control
Chain of Tyrosine-protein kinase ZAP-70 (Homo sapiens) (P43403 whole entry, the tested form may be a part): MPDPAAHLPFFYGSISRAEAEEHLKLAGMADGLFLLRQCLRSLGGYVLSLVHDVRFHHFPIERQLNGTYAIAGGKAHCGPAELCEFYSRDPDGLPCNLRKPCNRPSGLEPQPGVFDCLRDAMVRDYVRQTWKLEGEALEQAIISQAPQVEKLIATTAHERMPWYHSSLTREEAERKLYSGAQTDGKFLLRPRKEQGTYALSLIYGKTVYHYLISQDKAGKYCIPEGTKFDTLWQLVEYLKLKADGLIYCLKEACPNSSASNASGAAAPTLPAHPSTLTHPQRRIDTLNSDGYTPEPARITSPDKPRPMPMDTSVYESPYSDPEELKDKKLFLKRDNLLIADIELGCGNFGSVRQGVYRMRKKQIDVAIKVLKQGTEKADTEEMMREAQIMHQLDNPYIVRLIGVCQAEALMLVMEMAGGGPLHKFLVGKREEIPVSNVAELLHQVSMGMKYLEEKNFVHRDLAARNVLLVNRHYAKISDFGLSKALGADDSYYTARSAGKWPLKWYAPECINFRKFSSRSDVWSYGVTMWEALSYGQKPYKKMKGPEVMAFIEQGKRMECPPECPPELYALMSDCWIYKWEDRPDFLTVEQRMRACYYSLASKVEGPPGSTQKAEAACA

[5] = biological target: Receptor tyrosine-protein kinase erbB-2 (Homo sapiens) (UniProt P04626); experiment: Inhibition of recombinant His-tagged human HER2 (676 to 1255 residues) expressed in baculovirus expression system at 0.5 uM using tyr 06 as substrate in presence of ATP at Km concentration after 1 hr by Z'-LYTE assay relative to control
Chain of Receptor tyrosine-protein kinase erbB-2 (Homo sapiens) (P04626 whole entry, the tested form may be a part): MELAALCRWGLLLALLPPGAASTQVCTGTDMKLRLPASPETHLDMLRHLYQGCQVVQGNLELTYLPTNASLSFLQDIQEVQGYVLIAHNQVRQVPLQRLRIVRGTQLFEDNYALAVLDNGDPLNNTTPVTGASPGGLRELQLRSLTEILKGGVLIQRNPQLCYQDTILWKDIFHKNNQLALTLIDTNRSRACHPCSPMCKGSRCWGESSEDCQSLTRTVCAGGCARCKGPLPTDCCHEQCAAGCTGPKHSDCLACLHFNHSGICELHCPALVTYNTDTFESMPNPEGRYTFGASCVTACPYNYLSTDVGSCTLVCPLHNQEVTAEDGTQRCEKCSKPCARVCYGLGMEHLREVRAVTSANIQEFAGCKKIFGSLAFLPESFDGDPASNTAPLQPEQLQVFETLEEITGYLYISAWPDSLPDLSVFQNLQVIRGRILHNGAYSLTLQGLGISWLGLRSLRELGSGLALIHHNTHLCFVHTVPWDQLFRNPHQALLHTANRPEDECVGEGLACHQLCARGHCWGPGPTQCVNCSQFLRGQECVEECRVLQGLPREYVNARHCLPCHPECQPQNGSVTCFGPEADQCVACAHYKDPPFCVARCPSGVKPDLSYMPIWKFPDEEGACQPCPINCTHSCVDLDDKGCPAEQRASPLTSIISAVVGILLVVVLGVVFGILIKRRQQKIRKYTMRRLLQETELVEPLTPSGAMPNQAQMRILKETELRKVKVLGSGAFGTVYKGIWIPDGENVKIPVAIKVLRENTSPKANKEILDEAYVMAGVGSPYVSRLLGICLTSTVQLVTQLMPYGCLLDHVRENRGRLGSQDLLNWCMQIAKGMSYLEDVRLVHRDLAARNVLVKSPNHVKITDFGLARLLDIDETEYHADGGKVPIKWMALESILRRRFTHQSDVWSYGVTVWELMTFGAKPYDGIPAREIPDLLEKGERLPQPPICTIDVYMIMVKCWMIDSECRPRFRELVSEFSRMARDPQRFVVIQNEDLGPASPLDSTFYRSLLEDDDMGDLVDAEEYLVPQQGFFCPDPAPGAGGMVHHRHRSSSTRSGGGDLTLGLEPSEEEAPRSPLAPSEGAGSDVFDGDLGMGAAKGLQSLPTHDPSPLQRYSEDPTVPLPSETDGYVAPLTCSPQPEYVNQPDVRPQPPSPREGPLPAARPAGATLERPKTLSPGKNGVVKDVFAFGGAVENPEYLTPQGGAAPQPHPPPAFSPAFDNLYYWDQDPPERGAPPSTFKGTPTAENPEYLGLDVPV

[6] = biological target: Serine/threonine-protein kinase pim-2 (Homo sapiens) (UniProt Q9P1W9); experiment: Inhibition of recombinant full length GST-tagged human PIM2 expressed in baculovirus expression system at 0.5 uM using Ser/Thr 07 as substrate in presence of ATP at Km concentration after 1 hr by Z'-LYTE assay relative to control
Chain of Serine/threonine-protein kinase pim-2 (Homo sapiens) (Q9P1W9 whole entry, looked up): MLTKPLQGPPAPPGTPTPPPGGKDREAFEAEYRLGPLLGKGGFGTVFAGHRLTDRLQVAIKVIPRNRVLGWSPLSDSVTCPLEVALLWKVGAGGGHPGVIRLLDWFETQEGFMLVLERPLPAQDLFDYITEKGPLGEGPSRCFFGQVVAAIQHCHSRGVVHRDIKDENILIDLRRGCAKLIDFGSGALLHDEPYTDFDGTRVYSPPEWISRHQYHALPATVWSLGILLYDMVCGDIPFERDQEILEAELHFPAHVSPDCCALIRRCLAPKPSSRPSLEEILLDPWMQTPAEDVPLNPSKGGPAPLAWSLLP

[7] = biological target: Tyrosine-protein kinase Lck (Homo sapiens) (UniProt P06239); experiment: Inhibition of recombinant full length His-tagged human LCK expressed in baculovirus expression system at 0.5 uM using tyr 02 as substrate in presence of ATP at Km concentration after 1 hr by Z'-LYTE assay relative to control
Chain of Tyrosine-protein kinase Lck (Homo sapiens) (P06239 2-509 limits assumed): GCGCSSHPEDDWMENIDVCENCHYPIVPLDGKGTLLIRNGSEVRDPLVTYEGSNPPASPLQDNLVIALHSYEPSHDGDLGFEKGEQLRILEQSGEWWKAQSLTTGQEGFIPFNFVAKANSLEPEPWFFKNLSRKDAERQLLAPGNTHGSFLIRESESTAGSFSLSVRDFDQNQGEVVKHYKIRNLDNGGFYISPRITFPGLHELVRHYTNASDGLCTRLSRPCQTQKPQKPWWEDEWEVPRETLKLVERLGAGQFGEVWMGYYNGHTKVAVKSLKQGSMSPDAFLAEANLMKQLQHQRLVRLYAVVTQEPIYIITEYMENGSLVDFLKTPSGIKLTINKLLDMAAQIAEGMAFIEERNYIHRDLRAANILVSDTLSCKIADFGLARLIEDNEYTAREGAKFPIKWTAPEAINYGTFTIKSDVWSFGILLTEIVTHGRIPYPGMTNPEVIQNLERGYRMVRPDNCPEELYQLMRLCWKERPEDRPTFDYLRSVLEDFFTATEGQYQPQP

[8] = biological target: Serine/threonine-protein kinase B-raf (Homo sapiens) (UniProt P15056); experiment: Inhibition of full length GST-tagged human BRAF expressed in baculovirus expression system at 0.5 uM using Ser/Thr 03 as substrate in presence of 100 uM ATP after 1 hr by Z'-LYTE assay relative to control
Chain of Serine/threonine-protein kinase B-raf (Homo sapiens) (P15056 whole entry): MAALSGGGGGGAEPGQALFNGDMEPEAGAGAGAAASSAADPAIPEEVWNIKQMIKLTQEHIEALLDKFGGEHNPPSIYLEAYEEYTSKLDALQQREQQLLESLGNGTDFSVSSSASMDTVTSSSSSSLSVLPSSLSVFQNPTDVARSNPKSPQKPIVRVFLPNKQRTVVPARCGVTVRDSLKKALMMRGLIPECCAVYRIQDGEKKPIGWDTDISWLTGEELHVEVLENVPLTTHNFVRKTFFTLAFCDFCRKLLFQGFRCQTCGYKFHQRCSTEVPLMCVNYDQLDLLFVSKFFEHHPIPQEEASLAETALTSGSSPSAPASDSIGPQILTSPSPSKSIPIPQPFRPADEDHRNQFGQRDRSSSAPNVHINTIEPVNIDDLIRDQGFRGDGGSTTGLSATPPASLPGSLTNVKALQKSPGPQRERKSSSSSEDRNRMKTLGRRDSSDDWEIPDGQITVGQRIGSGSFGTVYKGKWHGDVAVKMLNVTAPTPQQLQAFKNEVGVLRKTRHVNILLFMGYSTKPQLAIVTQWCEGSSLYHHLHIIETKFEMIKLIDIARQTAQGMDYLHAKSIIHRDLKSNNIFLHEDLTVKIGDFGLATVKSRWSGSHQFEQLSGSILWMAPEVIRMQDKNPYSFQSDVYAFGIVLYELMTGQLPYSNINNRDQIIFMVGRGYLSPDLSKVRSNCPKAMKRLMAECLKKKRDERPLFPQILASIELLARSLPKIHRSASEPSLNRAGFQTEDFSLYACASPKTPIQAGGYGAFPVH

IC50 (MDA-MB-231): 17.4 µM | inhibition [3]: 73% | inhibition [4]: -3% | inhibition [5]: 12% | inhibition [6]: -3% | inhibition [7]: 14% | inhibition [8]: 3%
Structure (SMILES): COc1cc(C(=O)NC2CCNCC2)ccc1Nc1nc(Nc2ccccc2P(C)(C)=O)c2cc[nH]c2n1
Activity (A549 [1]): 25.09% | Activity (A549 [2]): Dose-dependent effect
